# Source: patent US4230845A, “Polyhydroxy-alkyl-3,5-disubstituted-2,4,6-triiodocarbanilates” (Mallinckrodt, Inc., priority 1978, dated 1980)
# Read-outs that look alike come from different tables or passages of the source.
# Key:
# [1] = Intracerebral toxicity in mice; type: in vivo, Swiss Albino mice (Charles River); conditions: aqueous solution, seven day observation, Litchfield and Wilcoxon
# Method: (§1) Toxicity evaluations in accordance with three different techniques were carried out on aqueous solutions of the compounds of Examples I and II. The techniques utilized are described below.
# Swiss Albino mice (Charles River) were used. Fixed volumes of aqueous solutions of the iodinated compounds were injected intracerebrally via a 27 gauge needle (1/4 inch in length) according to the method of Haley et al. (Br. J. of Pharmac. 12:12-15, 1957). The animals were observed immediately following injections and daily throughout a seven day observation period. The LD50 values were calculated by the method of Litchfield and Wilcoxon (J. of Pharmac. and Exptl. Therap. 96:99-113, 1949).
# [2] = Intravenous pyelographic studies in dogs; type: in vivo; conditions: dog
# Method: The compounds of Examples I and II were employed in intravenous pyelographic studies carried out in dogs. At a dosage of 1000 mg.
# [3] = Water solubility; type: physicochemical
# [4] = Intracisternal toxicity in rats; type: in vivo, Sprangue-Dawley (Carworth) rats; conditions: aqueous solution, two day observation, Litchfield and Wilcoxon
# Method: as §1
# Sprangue-Dawley (Carworth) rats were used. The method used was a variation of the procedure outlined by Melartin et al. (Invest. Rad. 5: 13-21, 1970). After dosing, the animals were housed individually and observed for immediate reactions and periodically for a two day observation period. The LD50 values were calculated according to the method of Litchfield and Wilcoxon (J. of Pharmac. and Exptl. Therap. 96:99-115, 1949).
# [5] = Acute intravenous toxicity studies in mice; type: in vivo, Swiss Albino mice (Charles River); conditions: intravenous (lateral tail vein), iodine concentration 28.2%, pH 7.0-7.2, approx. 1 ml./min, seven day observation, Litchfield and Wilcoxon
# Method: as §1
# Swiss Albino mice (Charles River) were dosed in the lateral tail vein with aqueous solutions of the above-noted iodinated compounds having an iodine concentration of 28.2% with a pH of 7.0-7.2. The solutions were injected at the rate of approximately 1 ml./min. […] The LD50 values were calculated by the method of Litchfield and Wilcoxon (J. of Pharmac. and Exptl. Therap. 96: 99-113, 1949).
Structure (SMILES),"LD50 Value, Intracerebral (Mice) [1]","Pyelographic visualization ([2]; 155 mg. I/kg., five minutes after injection)","Pyelographic visualization ([2]; 155 mg. I/kg., one minute after injection)",solubility ([3]; read-out: Water solubility) [mg/mL],"LD50 Value, Intracisternal (Rats) [4] [mg. I/kg. body wt.]","LD50 Value, I.V. (Mice) [5]","Pyelographic visualization ([2]; 1000 mg. I/kg., five minutes after injection)",solubility at 730 h ([3]; after standing for one month) [mg/mL],"solubility ([3]; initial determination, read-out: Water solubility (initially)) [mg/mL]"
"CNC(=O)c1c(I)c(NC(=O)OC[C@@H](O)[C@H](O)[C@H](O)[C@@H](O)C=O)c(I)c(N(C)C(C)=O)c1I [Example II, 6-[2,4,6-Triiodo-3-(N-methylacetamido)-5-(N-methylcarbamyl)carbanilyl]-D-galactose]",222 mg. I/kg. body wt.,a better shadow of the kidneys was seen together with partial visualization of the ureters,visualization of the kidneys,≥ 1000,< 20,"2,300 mg. I/kg. body wt.",–,–,–
"CNC(=O)c1c(I)c(NC(=O)OCC(=O)[C@@H](O)[C@H](O)[C@@H](O)CO)c(I)c(C(=O)N(C)C)c1I [Example I, 1-[N-(2,4,6-triiodo-3-N,N-dimethylcarbamyl-5-N-methylcarbamyl)carbanilyl]-L-sorbose]","1,450 mg. I/kg. body wt.",–,–,–,13,"3,027 mg. I/kg. body wt.","very good contrast of the kidneys, collecting pelvises and urinary bladder",200,1000
